Assay results reported in PMC12300041, “Tricyclic Isatin Derivatives as Anti-Inflammatory Compounds with High Kinase Binding Affinity” (Molecules, 2025).

Experiments:
[1] = system: EGFR (L747-T751 del, Sins); assay: KINOMEscan; format: binding, human; details: 10 μM
Protocol: (§1) Kinase profiling was performed by KINOMEscan (Eurofins Pharma Discovery, San Diego, CA, USA), using a panel of 423 protein kinases, as described previously. Compounds were submitted for dissociation constant (Kd) determination toward several target kinases using KINOMEscan. […] Binding reactions were performed at room temperature for 1 h, and the fraction of kinase not bound to the test compound was determined by capture with an immobilized affinity ligand and quantified by quantitative polymerase chain reaction. The primary screening at fixed concentrations of the compound was performed in duplicate. For dissociation constant Kd determination, a 12-point half-log dilution series (a maximum concentration of 33 μM) was used.

[2] = system: FLT3 (ITD, F691L); assay: KINOMEscan; format: binding, human; details: 10 μM
Protocol: as §1

O=C1Nc2c(cc([N+](=O)[O-])c3c2CCCC3)C1=NO [Compound 5d, 3-(Hydroxyimino)-5-nitro-1,3,6,7,8,9-hexahydro-2H-benzo[g]indol-2-one]
Inhib. (%) [1]: 22% | Inhib. (%) [2]: 66%
